The values below are quoted from earlier work in patent US20100209480A1, “GALENICAL FORMULATIONS OF ORGANIC COMPOUNDS” (priority 2007, published 2010).

For this data set the following is noted: drug substance.

For `COCCCOc1cc(C[C@@H](C[C@H](N)[C@@H](O)C[C@H](C(=O)NCC(C)(C)C(N)=O)C(C)C)C(C)C)ccc1OC` [Aliskiren, 2(S),4(S),5(S),7(S)—N-(3-amino-2,2-dimethyl-3-oxopropyl)-2,7-di(1-methylethyl)-4-hydroxy-5-amino-8-[4-methoxy-3-(3-methoxy-propoxy)phenyl]-octanamide], the Hygroscopicity result was “highly hygroscopic”.
